Data: patent US20260083687A1, “COMPOUNDS FOR REDUCING LACTATION AND IMPROVING HEALTH” (AHV International B.V., priority 2022, published 2026)

Tests used:
[1] = test system: cows (Holstein Friesians); assay: Dose-response DPD treatment and milk yield (Example 2); assay type: in vivo, cow; conditions: for Milk yield Last milking: before administration; for % reduction after 24 h / % reduction after 48 h / % reduction after 72 h / % reduction after 96 h: vs milk yield before treatment
Excerpt: Study design. Twenty-seven cows (Holstein Friesians) from 2 farms were used. […] The cows were milked twice a day. The cows were housed in free stables.
[…] For each dosage 3 cows were used.

[2] = test system: cows; assay: Administering of DPD at abrupt dry off and occurrence of mastitis / new intramammary infections, milk leakage, SCC (Example 10); assay type: in vivo, cow
Procedure: Study design. Cow description. 59 cows from 5 different farms were used for this study. The cows were randomly divided into 3 groups: • Control group; • DPD Treatment group 1: DC Liquid (500 mL) group (composition with 80 ml pure dipropyl disulfide); and • DPD Treatment group 2: DPD enriched onion Extract (OE) bolus (150 mL) group (corresponding to 80 ml pure dipropyl disulfide).
The control group consisted of 24 cows with an average milk production prior to dry off of 17.23 liters. […] The average lactation of the control group was 2.1 and they had on average a dry period of 48 days (10 animals in 1st lactation, 4 in 2nd lactation, 6 in 3th lactation and 4 in 4th lactation). 50% of all cows in the control group were observed leaking milk regardless of milk production prior to dry off, and the incidence goes up to 63% if the cows with production below or equal to 12.5 liters prior to dry off or discarded.
The DC Liquid treatment group consisted of 18 cows with an average mp prior to dry off of 21.61 liters (1 cow with a mp lower than 12.5 liters, lowest 11.40 liters and highest 32 liters). The average lactation of the DC Liquid group was 1.9 with 11 cows in 1st lactation, 2 cows in 2nd, 3 cows in 3th, and 2 cows in 5th lactation. The average dry period of this group was 49 days.
The DPD enriched OE bolus treatment group consisted of 17 cows with an average mp prior to dry off of 20.6 liters (lowest 13.8 and high 32 liters) and an average lactation of 2.2 (6 cows in 1 s lactation, 4 cows in 2nd, 4 cows in 3th, and 3 cows in 4th lactation). 1 cow dropped out during the dry period because of non-related lameness issues. The dry period of this group was on average 46 days.
After the last milking the cows received the dry off protocol according to the farms protocols. The DPD treatment groups received a DPD treatment in the form of a bolus dose by bolus shooter in the rumen. Both treatment groups consisted of treatment with 80 ml DPD. In all cases abrupt dry-off was applied, with no restriction in number of milking nor change of feed prior to dry-off. Before moving to the dry pen all cows underwent hoof trimming. During the dry period and after calving the cows were monitored for signs of mastitis. Before the cows were 30 days in lactation a SCC was determined to evaluate the dry period.
Intramammary infections (IMI) were defined as signs of a clinical mastitis (ao. Flocks, watery milk, coloring of milk) cases during the dry period and in the first 30 days in lactation or a rise in individual somatic cell count (ISCC) from before to after the dry period (threshold: 200,000 cells/mL) or both.

CCCSSCCC [DPD, di-n-propyl disulfide]
Average reduction 24 and 48 h (%) ([1]; 10 ml DPD): −3.3% | Milk yield After 24 h ([1]; 10 ml DPD): 14.45 kg | Milk yield After 48 h ([1]; 10 ml DPD): 13.98 kg | Milk yield After 72 h ([1]; 10 ml DPD): 12.99 kg | Milk yield After 96 h ([1]; 10 ml DPD): 13.78 kg | Milk yield Last milking ([1]; 10 ml DPD): 13.76 kg | % reduction after 24 h ([1]; 10 ml DPD): −5% | % reduction after 48 h ([1]; 10 ml DPD): −1.6% | % reduction after 72 h ([1]; 10 ml DPD): 5.6% | % reduction after 96 h ([1]; 10 ml DPD): 0% | Average reduction 24 and 48 h (%) ([1]; 20 ml DPD): 23% | Milk yield After 24 h ([1]; 20 ml DPD): 9.42 kg | Milk yield After 48 h ([1]; 20 ml DPD): 10.2 kg | Milk yield After 72 h ([1]; 20 ml DPD): 12.93 kg | Milk yield After 96 h ([1]; 20 ml DPD): 12.68 kg | effect on milk yield compared to the milk yield before treatment ([1]; 20 ml DPD): clear lowering on milk yield | Milk yield Last milking ([1]; 20 ml DPD): 12.72 kg | % reduction after 24 h ([1]; 20 ml DPD): 26% | % reduction after 48 h ([1]; 20 ml DPD): 20% | % reduction after 72 h ([1]; 20 ml DPD): −1.7% | % reduction after 96 h ([1]; 20 ml DPD): 0% | Average reduction 24 and 48 h (%) ([1]; 50 ml DPD): 33% | Milk yield After 24 h ([1]; 50 ml DPD): 10.03 kg | Milk yield After 48 h ([1]; 50 ml DPD): 8.38 kg | Milk yield After 72 h ([1]; 50 ml DPD): 14.16 kg | Milk yield After 96 h ([1]; 50 ml DPD): 13.68 kg | Milk yield Last milking ([1]; 50 ml DPD): 13.73 kg | % reduction after 24 h ([1]; 50 ml DPD): 27% | % reduction after 48 h ([1]; 50 ml DPD): 39% | % reduction after 72 h ([1]; 50 ml DPD): −3.1% | % reduction after 96 h ([1]; 50 ml DPD): 0% | Average reduction 24 and 48 h (%) ([1]; 80 ml DPD): 55% | Milk yield After 24 h ([1]; 80 ml DPD): 8.46 kg | Milk yield After 48 h ([1]; 80 ml DPD): 7.40 kg | Milk yield After 72 h ([1]; 80 ml DPD): 15.63 kg | Milk yield After 96 h ([1]; 80 ml DPD): 17.65 kg | Milk yield Last milking ([1]; 80 ml DPD): 17.63 kg | % reduction after 24 h ([1]; 80 ml DPD): 52% | % reduction after 48 h ([1]; 80 ml DPD): 58% | % reduction after 72 h ([1]; 80 ml DPD): 11.3% | % reduction after 96 h ([1]; 80 ml DPD): 0% | behavior of the cows ([1]; 80 ml or more DPD): became restless and showed a more active behavior | Average reduction 24 and 48 h (%) ([1]; 100 ml DPD): 51% | Milk yield After 24 h ([1]; 100 ml DPD): 8.12 kg | Milk yield After 48 h ([1]; 100 ml DPD): 8.44 kg | Milk yield After 72 h ([1]; 100 ml DPD): 13.33 kg | Milk yield After 96 h ([1]; 100 ml DPD): 16.55 kg | Milk yield Last milking ([1]; 100 ml DPD): 16.23 kg | % reduction after 24 h ([1]; 100 ml DPD): 50% | % reduction after 48 h ([1]; 100 ml DPD): 52% | % reduction after 72 h ([1]; 100 ml DPD): 17.9% | % reduction after 96 h ([1]; 100 ml DPD): −0.2% | Average reduction 24 and 48 h (%) ([1]; 150 ml DPD): 62% | Milk yield After 24 h ([1]; 150 ml DPD): 8.72 kg | Milk yield After 48 h ([1]; 150 ml DPD): 5.17 kg | Milk yield After 72 h ([1]; 150 ml DPD): 11.24 kg | Milk yield After 96 h ([1]; 150 ml DPD): 14.63 kg | Milk yield Last milking ([1]; 150 ml DPD): 14.78 kg | % reduction after 24 h ([1]; 150 ml DPD): 59% | % reduction after 48 h ([1]; 150 ml DPD): 65% | % reduction after 72 h ([1]; 150 ml DPD): 24% | % reduction after 96 h ([1]; 150 ml DPD): 0% | Average reduction 24 and 48 h (%) ([1]; 175 ml DPD): 55% | Milk yield After 24 h ([1]; 175 ml DPD): 8.44 kg | Milk yield After 48 h ([1]; 175 ml DPD): 8.75 kg | Milk yield After 72 h ([1]; 175 ml DPD): 13.24 kg | Milk yield Last milking ([1]; 175 ml DPD): 15.63 kg | % reduction after 24 h ([1]; 175 ml DPD): 54% | % reduction after 48 h ([1]; 175 ml DPD): 56% | % reduction after 72 h ([1]; 175 ml DPD): 15.3% | Average reduction 24 and 48 h (%) ([1]; 200 ml DPD): 52% | Milk yield After 24 h ([1]; 200 ml DPD): 11.29 kg | Milk yield After 48 h ([1]; 200 ml DPD): 10.87 kg | Milk yield After 72 h ([1]; 200 ml DPD): 13.56 kg | Milk yield Last milking ([1]; 200 ml DPD): 21.31 kg | % reduction after 24 h ([1]; 200 ml DPD): 53% | % reduction after 48 h ([1]; 200 ml DPD): 51% | % reduction after 72 h ([1]; 200 ml DPD): 36.4% | behavior and eating behavior of the cows ([1]; after DPD administration): relaxed and quiet behavior and no change in eating behavior was observed | adverse effects ([1]; dose of 200 grams administered to a cow): without demonstrating any adverse effects | effect on milk yield ([1]; more than 80 ml DPD): no further decrease of milk yield was observed | behavior of the cows ([1]; more than 100 ml DPD): looked like to become more active | dosage at which the milk yield decrease became visible ([1]; single oral dose): ≥ 20 mL | dosage giving maximum response (milk yield decrease) ([1]; single oral dose): ≥ 80 mL | duration of the effect of DPD on milk yield ([1]; single oral dose): disappears on the 3rd and 4th day after treatment | behavior of the cows ([1]; until 80 ml DPD): no undesired behavior of the cows was observed | outcome of animals that entered the dry period diagnosed with an IMI ([2]; 3 animals (2 DC Liquid, 1 DPD enriched OE)): all 3 recovered at the start of the new lactation | animals diagnosed with a new IMI after calving ([2]; 80 ml DPD at abrupt dry off): 21% | cases with a decrease of SCC after calving ([2]; 80 ml DPD at abrupt dry off): 61% | incidence of milk leakage ([2]; 80 ml DPD at abrupt dry off, DPD treatment groups 1 and 2 combined): 17% | reduction of risk of new IMI ([2]; DPD treated groups combined vs control group): 42% | reduction of incidence of milk leakage ([2]; DPD treatment groups combined vs control group): 73% | cows with signs of mastitis (flocks in milk) ([2]; after calving, DPD treatment group): 1 cow | cows with signs of clinical mastitis ([2]; during the dry period, DPD treatment group): 1 cow
